# Data reported in ChEMBL document CHEMBL2203036, “Discovery of 1-[2-(2,4-dimethylphenylsulfanyl)phenyl]piperazine (Lu AA21004): a novel multimodal compound for the treatment of major depressive disorder” (J Med Chem, 2011).
# pIC50, pKi: −log10 of the molar value.
# Experiments:
# [1] = target: Sodium-dependent serotonin transporter (Rattus norvegicus, UniProt P31652); experiment: Inhibition of SERT-mediated [3H]5HT uptake in rat synaptosomes by scintillation counting; format: subcellular, Brain
# [2] = target: T1, 5-hydroxytryptamine receptor 1A (Homo sapiens, UniProt P08908); experiment: biochemical; format: cell-based, HEK293
# T1 sequence (P08908 whole entry): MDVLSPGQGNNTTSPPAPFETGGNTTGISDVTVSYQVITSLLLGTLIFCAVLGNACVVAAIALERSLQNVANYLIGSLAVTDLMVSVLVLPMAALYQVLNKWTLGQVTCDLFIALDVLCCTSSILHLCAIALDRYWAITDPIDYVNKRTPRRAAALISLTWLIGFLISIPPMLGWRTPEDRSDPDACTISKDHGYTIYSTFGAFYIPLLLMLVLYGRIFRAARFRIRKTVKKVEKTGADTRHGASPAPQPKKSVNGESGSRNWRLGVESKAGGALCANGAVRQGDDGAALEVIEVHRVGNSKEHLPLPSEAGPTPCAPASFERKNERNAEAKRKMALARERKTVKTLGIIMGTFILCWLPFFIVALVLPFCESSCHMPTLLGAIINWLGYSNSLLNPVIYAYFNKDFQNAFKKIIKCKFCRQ
# Description: Displacement of [3H]5-carboxamidotryptamine to human 5HT1A expressed in HEK293 cells by filter binding assay
# [3] = target: T2, 5-hydroxytryptamine receptor 3A (Homo sapiens, UniProt P46098); experiment: Displacement of [3H]granisetron from human 5HT3A receptor expressed in HEK293 cells by filter binding assay; format: cell-based
# T2 sequence (P46098 whole entry): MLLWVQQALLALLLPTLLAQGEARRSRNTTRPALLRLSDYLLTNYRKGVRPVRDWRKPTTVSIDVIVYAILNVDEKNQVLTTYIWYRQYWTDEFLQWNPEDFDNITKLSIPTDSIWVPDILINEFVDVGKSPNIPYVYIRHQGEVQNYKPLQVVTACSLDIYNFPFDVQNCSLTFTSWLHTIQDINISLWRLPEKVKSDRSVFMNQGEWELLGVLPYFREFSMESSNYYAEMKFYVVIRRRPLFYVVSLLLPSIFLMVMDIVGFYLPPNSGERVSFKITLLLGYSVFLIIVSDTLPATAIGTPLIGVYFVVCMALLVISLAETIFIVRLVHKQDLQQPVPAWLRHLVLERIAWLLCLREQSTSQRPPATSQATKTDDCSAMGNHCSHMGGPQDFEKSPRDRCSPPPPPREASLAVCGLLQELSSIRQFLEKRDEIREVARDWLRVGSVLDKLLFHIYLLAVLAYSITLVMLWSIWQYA
# Cytochrome P450 3A4 = Cytochrome P450 3A4 (Homo sapiens, UniProt P08684); experiment: Inhibition of human recombinant CYP3A4 using resorufin benzyl ether after 30 mins by fluorescence spectrophotometric analysis; format: ADME
# Cytochrome P450 2D6 = Cytochrome P450 2D6 (Homo sapiens, UniProt P10635); experiment: Inhibition of human recombinant CYP2D6 using 3-[2-(N,N-diethyl-N-methylamino)ethyl]-7-methoxy- 4-methylcoumarin after 45 mins by fluorescence spectrophotometric analysis; format: ADME
# Cytochrome P450 2C9 = Cytochrome P450 2C9 (Homo sapiens, UniProt P11712); experiment: Inhibition of human recombinant CYP2C9 using dibenzylfluorescein after 45 mins by fluorescence spectrophotometric analysis; format: ADME
# Cytochrome P450 1A2 = target: T3, Cytochrome P450 1A2 (Homo sapiens, UniProt P05177); experiment: Inhibition of human recombinant CYP1A2 using 7-ethoxy-3-cyanocoumarin after 28 mins by fluorescence spectrophotometric analysis; format: ADME
# T3 sequence (P05177 whole entry): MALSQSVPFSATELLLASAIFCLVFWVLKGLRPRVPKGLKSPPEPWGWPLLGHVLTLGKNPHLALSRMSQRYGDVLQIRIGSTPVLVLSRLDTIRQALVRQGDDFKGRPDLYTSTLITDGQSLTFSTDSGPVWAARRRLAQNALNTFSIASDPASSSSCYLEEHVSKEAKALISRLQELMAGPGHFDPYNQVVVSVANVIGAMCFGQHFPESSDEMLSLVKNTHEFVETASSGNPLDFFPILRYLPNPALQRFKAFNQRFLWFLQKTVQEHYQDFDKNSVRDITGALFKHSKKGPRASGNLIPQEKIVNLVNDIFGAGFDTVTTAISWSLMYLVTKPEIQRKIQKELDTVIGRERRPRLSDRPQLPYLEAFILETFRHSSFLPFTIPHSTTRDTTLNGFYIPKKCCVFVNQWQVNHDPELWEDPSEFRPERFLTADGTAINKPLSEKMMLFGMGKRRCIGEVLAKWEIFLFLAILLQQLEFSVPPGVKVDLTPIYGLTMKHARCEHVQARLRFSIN
# Liver microsomes [4] = experiment: Intrinsic clearance in rat liver microsomes at 1 uM after 60 mins by LC-MS/MS analysis; format: ADME, Microsome; conditions: 1 h
# Liver microsomes [5] = experiment: Intrinsic clearance in human liver microsomes at 1 uM after 60 mins by LC-MS/MS analysis; format: ADME, Microsome; conditions: 1 h
# [6] = Inhibition of NET-mediated [3H]NE in rat synaptosomes by scintillation counting; format: subcellular, Brain
# [7] = target: Sodium-dependent dopamine transporter (Rattus norvegicus, UniProt P23977); experiment: Inhibition of DAT-mediated [3H]DA in rat synaptosomes by scintillation counting; format: subcellular, Brain
# Rattus norvegicus [8] = species: Rattus norvegicus; experiment: Selectivity ratio of IC50 for NET to IC50 for SERT in rat synaptosomes; conditions: Brain
# Rattus norvegicus [9] = species: Rattus norvegicus; experiment: Selectivity ratio of IC50 for DAT to IC50 for SERT in rat synaptosomes; conditions: Brain
# [10] = target: Alpha-1A adrenergic receptor (Rattus norvegicus, UniProt P43140); experiment: Binding affinity to rat alpha1 adrenergic receptor
# [11] = target: 5-hydroxytryptamine receptor 2C (Homo sapiens, UniProt P28335); experiment: Binding affinity to human 5HT2C receptor
# Chain of 5-hydroxytryptamine receptor 2C (P28335 whole entry): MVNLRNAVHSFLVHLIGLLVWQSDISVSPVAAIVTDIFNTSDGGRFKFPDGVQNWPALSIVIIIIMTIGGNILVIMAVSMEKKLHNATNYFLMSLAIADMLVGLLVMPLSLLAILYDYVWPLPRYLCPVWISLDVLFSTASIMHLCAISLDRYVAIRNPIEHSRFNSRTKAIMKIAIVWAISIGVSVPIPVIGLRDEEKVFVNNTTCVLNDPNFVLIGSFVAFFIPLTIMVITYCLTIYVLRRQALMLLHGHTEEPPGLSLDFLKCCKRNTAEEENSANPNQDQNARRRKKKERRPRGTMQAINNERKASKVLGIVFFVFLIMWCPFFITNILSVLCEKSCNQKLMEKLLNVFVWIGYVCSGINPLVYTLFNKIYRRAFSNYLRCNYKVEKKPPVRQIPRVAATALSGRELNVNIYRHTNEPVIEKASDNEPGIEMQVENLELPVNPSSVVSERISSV
# Chain of Cytochrome P450 2C9 (P11712 whole entry): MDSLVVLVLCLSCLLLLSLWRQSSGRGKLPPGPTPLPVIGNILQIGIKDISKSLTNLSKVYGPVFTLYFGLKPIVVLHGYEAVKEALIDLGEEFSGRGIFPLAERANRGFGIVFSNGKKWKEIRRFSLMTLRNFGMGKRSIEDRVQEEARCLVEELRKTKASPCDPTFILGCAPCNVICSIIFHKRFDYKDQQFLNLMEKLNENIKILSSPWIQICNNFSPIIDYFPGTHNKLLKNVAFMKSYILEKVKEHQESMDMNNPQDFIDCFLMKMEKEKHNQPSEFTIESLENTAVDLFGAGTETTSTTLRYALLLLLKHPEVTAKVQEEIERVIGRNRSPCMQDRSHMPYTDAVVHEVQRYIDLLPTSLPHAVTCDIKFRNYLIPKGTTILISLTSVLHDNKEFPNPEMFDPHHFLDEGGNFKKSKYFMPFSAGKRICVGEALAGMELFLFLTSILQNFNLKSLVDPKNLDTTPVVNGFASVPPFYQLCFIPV
# Chain of Sodium-dependent serotonin transporter (P31652 whole entry): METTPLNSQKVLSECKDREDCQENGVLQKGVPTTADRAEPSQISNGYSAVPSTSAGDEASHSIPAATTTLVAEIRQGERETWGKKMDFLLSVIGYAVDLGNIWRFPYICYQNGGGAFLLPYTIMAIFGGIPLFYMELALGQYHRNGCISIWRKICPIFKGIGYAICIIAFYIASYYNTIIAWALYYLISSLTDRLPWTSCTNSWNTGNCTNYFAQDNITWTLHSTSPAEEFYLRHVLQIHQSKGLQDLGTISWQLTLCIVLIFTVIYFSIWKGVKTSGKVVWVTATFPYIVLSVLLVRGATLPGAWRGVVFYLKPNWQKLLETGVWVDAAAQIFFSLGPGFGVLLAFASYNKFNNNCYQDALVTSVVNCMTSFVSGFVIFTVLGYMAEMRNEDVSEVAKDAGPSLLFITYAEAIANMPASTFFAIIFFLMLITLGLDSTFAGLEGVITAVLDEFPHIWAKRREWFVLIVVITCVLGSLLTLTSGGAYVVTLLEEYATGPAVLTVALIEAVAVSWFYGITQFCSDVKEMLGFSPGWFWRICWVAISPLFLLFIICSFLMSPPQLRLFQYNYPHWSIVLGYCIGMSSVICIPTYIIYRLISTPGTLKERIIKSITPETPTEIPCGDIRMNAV
# Chain of Sodium-dependent dopamine transporter (P23977 whole entry): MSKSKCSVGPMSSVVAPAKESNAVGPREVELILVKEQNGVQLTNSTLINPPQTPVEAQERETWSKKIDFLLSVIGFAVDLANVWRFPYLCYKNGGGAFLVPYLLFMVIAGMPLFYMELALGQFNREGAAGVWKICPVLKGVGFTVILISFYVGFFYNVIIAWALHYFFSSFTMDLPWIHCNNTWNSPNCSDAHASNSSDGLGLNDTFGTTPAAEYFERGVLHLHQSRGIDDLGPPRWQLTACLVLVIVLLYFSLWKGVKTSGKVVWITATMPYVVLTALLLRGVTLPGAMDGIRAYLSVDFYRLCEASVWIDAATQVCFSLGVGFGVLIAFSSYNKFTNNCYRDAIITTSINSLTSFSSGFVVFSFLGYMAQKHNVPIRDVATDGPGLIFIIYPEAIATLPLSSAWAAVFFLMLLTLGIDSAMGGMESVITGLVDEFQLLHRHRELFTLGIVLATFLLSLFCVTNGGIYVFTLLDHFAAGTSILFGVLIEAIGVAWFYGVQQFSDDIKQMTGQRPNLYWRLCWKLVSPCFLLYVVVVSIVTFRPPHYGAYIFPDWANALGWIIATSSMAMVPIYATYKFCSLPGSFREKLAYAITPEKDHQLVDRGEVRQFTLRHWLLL
# Chain of Cytochrome P450 3A4 (P08684 whole entry): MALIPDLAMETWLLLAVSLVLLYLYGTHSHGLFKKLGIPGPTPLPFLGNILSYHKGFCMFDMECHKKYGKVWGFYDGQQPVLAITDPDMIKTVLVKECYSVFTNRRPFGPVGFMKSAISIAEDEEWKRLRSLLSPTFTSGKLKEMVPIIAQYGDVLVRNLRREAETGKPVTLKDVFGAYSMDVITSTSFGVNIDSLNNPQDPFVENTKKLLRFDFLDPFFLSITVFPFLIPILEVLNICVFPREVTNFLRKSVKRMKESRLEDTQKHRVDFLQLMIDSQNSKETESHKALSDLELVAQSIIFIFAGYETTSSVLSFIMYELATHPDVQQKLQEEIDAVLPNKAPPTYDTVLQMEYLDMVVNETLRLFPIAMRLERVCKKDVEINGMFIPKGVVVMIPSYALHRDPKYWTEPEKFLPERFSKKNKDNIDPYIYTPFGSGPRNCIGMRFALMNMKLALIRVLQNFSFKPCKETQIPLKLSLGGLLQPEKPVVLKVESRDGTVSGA
# Chain of Cytochrome P450 2D6 (P10635 whole entry): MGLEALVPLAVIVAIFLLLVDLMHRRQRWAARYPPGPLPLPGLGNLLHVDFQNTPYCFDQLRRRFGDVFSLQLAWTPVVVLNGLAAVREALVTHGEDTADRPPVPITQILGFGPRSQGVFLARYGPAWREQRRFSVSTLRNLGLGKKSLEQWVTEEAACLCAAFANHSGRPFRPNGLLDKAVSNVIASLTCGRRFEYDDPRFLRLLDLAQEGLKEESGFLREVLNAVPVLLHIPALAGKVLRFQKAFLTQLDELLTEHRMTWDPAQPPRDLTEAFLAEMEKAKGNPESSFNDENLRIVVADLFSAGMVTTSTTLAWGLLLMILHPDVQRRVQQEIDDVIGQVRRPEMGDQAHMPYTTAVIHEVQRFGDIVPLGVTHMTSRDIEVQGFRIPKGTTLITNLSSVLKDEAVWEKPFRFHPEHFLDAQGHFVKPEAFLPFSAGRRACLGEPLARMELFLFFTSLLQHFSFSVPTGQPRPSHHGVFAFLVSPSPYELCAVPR
# Chain of Alpha-1A adrenergic receptor (P43140 whole entry): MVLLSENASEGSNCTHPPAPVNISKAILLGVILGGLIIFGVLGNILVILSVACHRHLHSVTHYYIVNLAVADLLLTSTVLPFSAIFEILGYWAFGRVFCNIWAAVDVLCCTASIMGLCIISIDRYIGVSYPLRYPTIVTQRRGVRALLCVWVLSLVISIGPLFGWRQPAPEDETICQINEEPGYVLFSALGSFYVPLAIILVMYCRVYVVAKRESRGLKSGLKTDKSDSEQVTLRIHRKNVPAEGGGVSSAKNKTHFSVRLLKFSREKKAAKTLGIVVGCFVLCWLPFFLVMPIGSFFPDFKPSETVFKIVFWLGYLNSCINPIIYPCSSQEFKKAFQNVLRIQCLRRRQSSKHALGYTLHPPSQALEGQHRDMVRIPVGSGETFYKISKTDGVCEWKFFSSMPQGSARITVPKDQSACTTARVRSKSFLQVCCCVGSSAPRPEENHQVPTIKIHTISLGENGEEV
Compound,pIC50 [1],pKi [2],pKi [3],also measured
Cc1ccc(Oc2ccccc2N2CCNCC2)c(C)c1,6.60,7.19,6.57,–
Cc1cccc(Sc2ccccc2N2CCNCC2)c1,7.27,7.00,7.19,–
Cc1ccc(Sc2ccccc2)c(N2CCNCC2)c1,6.82,5.96,6.51,–
Cc1ccc(Sc2ccccc2N2CCNCC2)c(Cl)c1.Cl,8.01,7.11,8.14,pIC50 (Cytochrome P450 3A4): 5.26; pIC50 (Cytochrome P450 2D6): 5.82; pIC50 (Cytochrome P450 2C9): 4.40; pIC50 (Cytochrome P450 1A2): 4.47; CLH (Liver microsomes [4]): 120 mL/min; CLH (Liver microsomes [5]): 0.6 L/min; pIC50 [6]: 6.47; pIC50 [7]: 6.49; Ratio IC50 (Rattus norvegicus [8]): 35; Ratio IC50 (Rattus norvegicus [9]): 33
CC(C)(C)c1ccc(Sc2ccccc2N2CCNCC2)cc1,5.68,5.60,6.35,–
Cc1ccc(Sc2c(C)cccc2N2CCNCC2)c(C)c1,6.27,6.27,6.17,–
COc1ccc(Sc2ccc(C)cc2N2CCNCC2)cc1,8.10,5.40,6.72,pKi [10]: > 7.00; pKi [11]: > 7.00
COc1ccccc1Sc1ccccc1N1CCNCC1,6.48,7.23,7.28,–
Clc1cccc(Sc2ccccc2N2CCNCC2)c1Cl,–,–,–,pIC50 (Cytochrome P450 2C9): 4.40; Ratio IC50 (Rattus norvegicus [8]): 7; Ratio IC50 (Rattus norvegicus [9]): 1
COc1ccc(Sc2ccccc2N2CCNCC2)c(OC)c1,8.12,6.48,7.49,–
COc1cccc(Sc2ccccc2N2CCNCC2)c1,7.28,6.85,7.21,–
Cc1ccc(Sc2ccc(Cl)cc2)c(N2CCNCC2)c1,8.02,5.60,6.30,–
Cc1ccc(Sc2ccc(F)cc2)c(N2CCNCC2)c1,7.17,5.96,6.36,–
Cc1ccc(Sc2cccc(C)c2N2CCNCC2)c(C)c1,7.36,6.38,6.80,–
COc1cccc(Sc2ccccc2N2CCNCC2)c1OC,7.43,–,–,–
Cl.Clc1ccc(Sc2ccccc2N2CCNCC2)c(Cl)c1,8.28,7.11,7.59,pIC50 (Cytochrome P450 3A4): 5.36; pIC50 (Cytochrome P450 2D6): 6.05; pIC50 (Cytochrome P450 2C9): 4.47; pIC50 (Cytochrome P450 1A2): 4.57; CLH (Liver microsomes [4]): 38 mL/min; CLH (Liver microsomes [5]): 0.5 L/min; pIC50 [6]: 6.92; pIC50 [7]: 6.60; Ratio IC50 (Rattus norvegicus [8]): 23; Ratio IC50 (Rattus norvegicus [9]): 48
Cc1ccc(Sc2ccccc2N2CCCNCC2)c(C)c1,6.89,–,7.57,–
Cc1ccc(Sc2cc(C)ccc2N2CCNCC2)c(C)c1,6.70,–,7.35,–
